The text below walks through data of patent US11771694B2, “Arylamide compounds for treatment and prevention of viral infections” (priority 2020, dated 2023).

Converted amounts (≈) assume the structure as drawn. Like-named read-outs stand apart in the source and are kept apart here.

The test system of experiment [1] is dextran sulfate sodium (DSS) induced colitis. In words: Mouse DSS colitis model. The class given is in vivo, mice. The following applies: mouse, in vivo.
The test system of experiment [2] is Staph. epidermidis. Nature of the experiment: Broth microdilution MIC. Format: cell-based. The note with it: Staphylococcus epidermidis.
Experiment [3] has as its system Klebsiella oxtoca. Nature of the experiment: Broth microdilution MIC. Format: cell-based. (Broth dilution looks for growth in wells or tubes with falling amounts of substance.)
Experiment [4] deals with Proteus vulgaris. Nature of the experiment: Broth microdilution MIC. The class given is cell-based.
For experiment [5], the system named is Providencia stuartii. In words: Broth microdilution MIC. Format: cell-based.
Experiment [6] concerns stationary phase cultures of MSSA and MRSA. In words: Time-kill against stationary phase cultures of MSSA and MRSA. Format: cell-based, Staph. aureus. The note with it: up to 10× the MIC; data not shown.
Experiment [7] relates to Entero. faecalis. In words: Broth microdilution MIC. The class given is cell-based. The following applies: Enterococcus faecalis.
Experiment [8] deals with Entero. faecium (VRE). Nature of the experiment: Broth microdilution MIC. Format: cell-based. The following applies: Enterococcus faecium.
In experiment [9] the test system is Staph. aureus (MRSA). Nature of the experiment: Broth microdilution MIC. Format: cell-based. The note with it: Staphylococcus aureus.
The subject of experiment [10] is Staph. saprophyticus. In words: Broth microdilution MIC. The class given is cell-based. The following applies: Staphylococcus saprophyticus.
The test system of experiment [11] is Staph. spp. coagulase-. In words: Broth microdilution MIC. Format: cell-based.
For experiment [12], the system named is Strept. agalactiae. In words: Broth microdilution MIC. Format: cell-based. The note with it: Streptococcus agalactiae.
Experiment [13] deals with Strept. pneumoniae. Nature of the experiment: Broth microdilution MIC. The class given is cell-based. The following applies: Streptococcus pneumoniae.
Experiment [14] relates to Strept. pyogenes. Nature of the experiment: Broth microdilution MIC. The class given is cell-based. The following applies: Streptococcus pyogenes.
Experiment [15] concerns Strept. viridians. Nature of the experiment: Broth microdilution MIC. The class given is cell-based.
Experiment [16] has as its system Citrobacter fruendi. In words: Broth microdilution MIC. Format: cell-based.
The test system of experiment [17] is Citrobacter koseri. Nature of the experiment: Broth microdilution MIC. Format: cell-based.
Experiment [18] concerns Enterobacter cloacae. Nature of the experiment: Broth microdilution MIC. Format: cell-based.
In experiment [19] the test system is Escherichia coli. Nature of the experiment: Broth microdilution MIC. The class given is cell-based.
For experiment [20], the system named is Klebsiella pneumoniae. In words: Broth microdilution MIC. The class given is cell-based.
Experiment [21] has as its system Morganella morganii. Nature of the experiment: Broth microdilution MIC. Format: cell-based.
Experiment [22] has as its system Proteus mirabilis. Nature of the experiment: Broth microdilution MIC. Format: cell-based.
Experiment [23] deals with Acinetobacter spp. Nature of the experiment: Broth microdilution MIC. Format: cell-based. The following applies: 2-3 isolates/organism.
The test system of experiment [24] is Pseud. aeruginosa. In words: Broth microdilution MIC. Format: cell-based. The following applies: Pseudomonas aeruginosa.
In experiment [25] the test system is Serratia marcescens. Nature of the experiment: Broth microdilution MIC. Format: cell-based.
Experiment [26] has as its system Stenotrophomonas maltophilia. In words: Broth microdilution MIC. Format: cell-based.
Experiment [27] has as its system Haemophilus influenzae. Nature of the experiment: Broth microdilution MIC. Format: cell-based.
Experiment [28] deals with SARS-CoV-2. The class given is cell-based. The note with it: Calu-3; MOI 0.05; 24 hpi.
Setting [29] is: 2-3 isolates/organism, read-out: MIC.

Take `Nc1ccc(O)c(C(=O)O)c1` [5-ASA, reference compound]: in [1], the “mean reduction in IL-1β in distal colon tissue” value is recorded as 33% and the “mean reduction in IL-6 in distal colon tissue” value is recorded as 86%.

For `CC(C)(O/N=C(\C(=O)N[C@@H]1C(=O)N2C(C(=O)[O-])=C(C[n+]3ccccc3)CS[C@H]12)c1csc(N)n1)C(=O)O` [Ceftazidime], the MIC in experiment [2] is 16 to 32 µg/mL (≈ 29.3 to 58.5 µM); in experiment [3] (Klebsiella) it was 0.06 to 0.12 µg/mL (≈ 0.11 to 0.22 µM); in experiment [4], 0.12 µg/mL (≈ 0.22 µM); in experiment [5], 0.12 to 64 µg/mL (≈ 0.22 to 117 µM).

Take `CCCCCCCCCC(=O)N[C@@H](Cc1c[nH]c2ccccc12)C(=O)N[C@H](CC(N)=O)C(=O)N[C@@H](CC(=O)O)C(=O)N[C@@H]1C(=O)NCC(=O)N[C@@H](CCCN)C(=O)N[C@@H](CC(=O)O)C(=O)N[C@H](C)C(=O)N[C@@H](CC(=O)O)C(=O)NCC(=O)N[C@H](CO)C(=O)N[C@@H]([C@H](C)CC(=O)O)C(=O)N[C@@H](CC(=O)c2ccccc2N)C(=O)O[C@@H]1C` [Daptomycin, reference compound]: the “antimicrobial activity against stationary phase cultures” value in experiment [6] was “little antimicrobial activity”.

As to `CC(=O)NC[C@H]1CN(c2ccc(N3CCOCC3)c(F)c2)C(=O)O1` [Linezolid], the MIC in experiment [7] (Entero. faecalis, 2-3 isolates/organism, read-out: MIC) is 1 to 2 µg/mL (≈ 2.96 to 5.93 µM); in experiment [8] (Entero. faecium (VRE), 2-3 isolates/organism, read-out: MIC) it was 1 to 2 µg/mL (≈ 2.96 to 5.93 µM); in experiment [9] (Staph. aureus (MRSA), 2-3 isolates/organism, read-out: MIC), 1 to 2 µg/mL (≈ 2.96 to 5.93 µM); in [2] (Staph. epidermidis, 2-3 isolates/organism, read-out: MIC) it was 0.5 to 1 µg/mL (≈ 1.48 to 2.96 µM); in [10] (Staph. saprophyticus, 2-3 isolates/organism, read-out: MIC) it was 1 to 2 µg/mL (≈ 2.96 to 5.93 µM); in experiment [11] (Staph. spp. coagulase-, 2-3 isolates/organism, read-out: MIC), 1 µg/mL (≈ 2.96 µM). Also, the MIC in experiment [12] (Strept. agalactiae, 2-3 isolates/organism, read-out: MIC) is 1 µg/mL (≈ 2.96 µM); in experiment [13] (Strept. pneumoniae, 2-3 isolates/organism, read-out: MIC), 1 µg/mL (≈ 2.96 µM); in experiment [14] (Strept. pyogenes, 2-3 isolates/organism, read-out: MIC) it was 1 µg/mL (≈ 2.96 µM); in [15] (Strept. viridians, 2-3 isolates/organism, read-out: MIC), 1 µg/mL (≈ 2.96 µM); in [16] (Citrobacter fruendi, 2-3 isolates/organism, read-out: MIC), > 16 µg/mL; in experiment [17] (setting [29]), > 16 µg/mL. The MIC in [18] (setting [29]) was > 16 µg/mL; in experiment [19] (setting [29]), > 16 µg/mL; in experiment [3] (Klebsiella oxtoca, 2-3 isolates/organism, read-out: MIC), > 16 µg/mL; in experiment [20] (setting [29]), > 16 µg/mL; in experiment [21] (setting [29]), > 16 µg/mL; in experiment [22] (setting [29]), > 16 µg/mL. The MIC in experiment [4] (setting [29]) is > 16 µg/mL; in experiment [5] (setting [29]) it was > 16 µg/mL; in [23], > 16 µg/mL; in experiment [24] (Pseud. aeruginosa, 2-3 isolates/organism, read-out: MIC), > 16 µg/mL; in experiment [25] (setting [29]), > 16 µg/mL; in [26] (setting [29]) it was > 16 µg/mL.

For `CN[C@H](CC(C)C)C(=O)N[C@H]1C(=O)N[C@@H](CC(N)=O)C(=O)N[C@H]2C(=O)N[C@H]3C(=O)N[C@H](C(=O)N[C@H](C(=O)O)c4cc(O)cc(O)c4-c4cc3ccc4O)[C@H](O)c3ccc(c(Cl)c3)Oc3cc2cc(c3O[C@@H]2O[C@H](CO)[C@@H](O)[C@H](O)[C@H]2O[C@H]2C[C@](C)(N)[C@H](O)[C@H](C)O2)Oc2ccc(cc2Cl)[C@H]1O` [Vancomycin], the MIC was 1 µg/mL (≈ 0.69 µM) in [7]; > 128 µg/mL in experiment [8] (VRE); 0.5 to 1 µg/mL (≈ 0.345 to 0.69 µM) in experiment [9] (MRSA); 2 µg/mL (≈ 1.38 µM) in experiment [2]; 1 to 2 µg/mL (≈ 0.69 to 1.38 µM) in experiment [10]; 1 to 2 µg/mL (≈ 0.69 to 1.38 µM) in experiment [11]. For the same compound, the MIC was 0.5 µg/mL (≈ 0.345 µM) in experiment [12]; 0.5 µg/mL (≈ 0.345 µM) in experiment [13]; 0.5 µg/mL (≈ 0.345 µM) in experiment [14]; 0.5 to 1 µg/mL (≈ 0.345 to 0.69 µM) in [15]; > 128 µg/mL in experiment [16] (Citrobacter); > 128 µg/mL in experiment [17]. The MIC in [18], in experiment [19], in [3] (Klebsiella), in [20], in experiment [21] and in [22] was > 128 µg/mL in each case. For the same compound, the MIC is > 128 µg/mL in experiment [4]; > 128 µg/mL in experiment [5]; > 128 µg/mL in experiment [24]; > 128 µg/mL in [25]; 32 to 128 µg/mL (≈ 22.1 to 88.3 µM) in experiment [26]; 128 µg/mL (≈ 88.3 µM) in experiment [27].

As for `NC(=O)c1nc(F)c[nH]c1=O` [favipiravir, reference compound], in experiment [28], the “inhibition of infectious titer, each drug alone” value is ≤ 80%.
